Our source for the inhibition and IC50 values is ChEMBL document CHEMBL1759967, “Structure-based design and biological profile of (E)-N-(4-Nitrobenzylidene)-2-naphthohydrazide, a novel small molecule inhibitor of IκB kinase-β” (Eur J Med Chem, 2011).

Calls of active or inactive are those of the source. The rule behind the calls is not given here.

The species named for assay [1] is Mus musculus. The conditions noted are these: Swiss, Ear, at 10 µmol/kg.
The target of assay [2] is Serine/threonine-protein kinase Chk2 (Homo sapiens) (UniProt O96017). Nature of the assay: Inhibition of human CHK2 kinase expressed in insect Sf21 cells using phospho-CREBtide as substrate at 30 uM.
Assay [3] deals with T1, Inhibitor of nuclear factor kappa-B kinase subunit alpha (Homo sapiens) (UniProt O15111).
T1 sequence (whole entry): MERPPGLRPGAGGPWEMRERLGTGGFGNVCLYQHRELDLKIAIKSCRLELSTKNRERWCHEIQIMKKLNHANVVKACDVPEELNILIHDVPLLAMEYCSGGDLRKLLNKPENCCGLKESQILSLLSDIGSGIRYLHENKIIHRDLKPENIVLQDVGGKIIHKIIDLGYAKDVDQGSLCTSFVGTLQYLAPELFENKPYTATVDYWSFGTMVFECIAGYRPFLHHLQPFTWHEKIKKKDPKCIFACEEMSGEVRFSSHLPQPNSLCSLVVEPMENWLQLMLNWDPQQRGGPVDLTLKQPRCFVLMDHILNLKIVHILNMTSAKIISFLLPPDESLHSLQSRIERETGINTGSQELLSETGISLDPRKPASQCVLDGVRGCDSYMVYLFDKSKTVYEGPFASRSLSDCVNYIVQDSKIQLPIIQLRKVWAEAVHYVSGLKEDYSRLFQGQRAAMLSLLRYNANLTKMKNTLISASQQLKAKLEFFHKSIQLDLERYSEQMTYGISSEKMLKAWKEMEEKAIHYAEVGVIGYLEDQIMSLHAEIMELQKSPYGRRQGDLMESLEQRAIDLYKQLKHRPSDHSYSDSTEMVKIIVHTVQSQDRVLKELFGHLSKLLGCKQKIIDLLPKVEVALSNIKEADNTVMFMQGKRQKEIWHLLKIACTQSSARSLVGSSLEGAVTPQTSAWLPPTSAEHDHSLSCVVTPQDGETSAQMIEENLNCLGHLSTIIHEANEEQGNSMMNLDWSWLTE
Particulars: Sf21, 30 uM.
Description: Inhibition of human recombinant IKK-alpha expressed in insect Sf21 cells using phospho-Ulight-IkappaB-alpha as substrate at 30 uM

Assay [4] addresses T2, Inhibitor of nuclear factor kappa-B kinase subunit beta (Homo sapiens, UniProt O14920).
T2 sequence (O14920 whole entry): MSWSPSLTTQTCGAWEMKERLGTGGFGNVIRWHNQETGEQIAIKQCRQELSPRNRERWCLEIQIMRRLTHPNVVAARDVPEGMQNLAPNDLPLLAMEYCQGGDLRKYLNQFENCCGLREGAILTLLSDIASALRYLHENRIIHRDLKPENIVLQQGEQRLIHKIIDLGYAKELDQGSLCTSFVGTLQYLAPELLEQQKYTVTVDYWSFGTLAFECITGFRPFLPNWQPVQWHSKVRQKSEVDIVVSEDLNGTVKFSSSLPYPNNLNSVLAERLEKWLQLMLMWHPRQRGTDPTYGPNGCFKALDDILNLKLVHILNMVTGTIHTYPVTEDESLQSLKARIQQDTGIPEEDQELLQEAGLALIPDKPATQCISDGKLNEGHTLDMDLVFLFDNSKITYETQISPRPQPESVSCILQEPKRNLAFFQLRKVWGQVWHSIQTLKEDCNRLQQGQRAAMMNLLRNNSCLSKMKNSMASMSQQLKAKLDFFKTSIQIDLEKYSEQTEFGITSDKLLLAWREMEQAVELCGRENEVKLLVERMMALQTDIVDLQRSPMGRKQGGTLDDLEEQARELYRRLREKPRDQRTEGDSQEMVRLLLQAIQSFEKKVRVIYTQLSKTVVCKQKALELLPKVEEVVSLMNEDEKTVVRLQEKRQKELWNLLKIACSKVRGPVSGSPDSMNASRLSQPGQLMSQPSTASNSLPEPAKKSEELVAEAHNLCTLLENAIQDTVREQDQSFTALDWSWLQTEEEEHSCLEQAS
Nature of the assay: Inhibition of human recombinant IKK-beta expressed in insect Sf21 cells using phospho-Ulight-IkappaB-alpha as substrate.

Assay [5] addresses T3, Inhibitor of nuclear factor kappa-B kinase subunit beta (Homo sapiens) (UniProt O14920).
T3 sequence (whole entry): T2 sequence (O14920 whole entry)
Particulars: Sf21, 30 uM.
Description: Inhibition of human recombinant IKK-beta expressed in insect Sf21 cells using phospho-Ulight-IkappaB-alpha as substrate at 30 uM

In assay [6] the test system is Mus musculus. Nature of the assay: Antiinflammatory activity in Swiss mouse assessed as inhibition of arachidonic acid-induced ear edema at 10 to 100 umol/kg, ip administered 60 mins before arachidonic acid challenge measured after 1 to 6 hrs by electronic digital caliper. In kind it is functional, organism-based.

Chain of Serine/threonine-protein kinase Chk2 (Homo sapiens) (O96017 whole entry): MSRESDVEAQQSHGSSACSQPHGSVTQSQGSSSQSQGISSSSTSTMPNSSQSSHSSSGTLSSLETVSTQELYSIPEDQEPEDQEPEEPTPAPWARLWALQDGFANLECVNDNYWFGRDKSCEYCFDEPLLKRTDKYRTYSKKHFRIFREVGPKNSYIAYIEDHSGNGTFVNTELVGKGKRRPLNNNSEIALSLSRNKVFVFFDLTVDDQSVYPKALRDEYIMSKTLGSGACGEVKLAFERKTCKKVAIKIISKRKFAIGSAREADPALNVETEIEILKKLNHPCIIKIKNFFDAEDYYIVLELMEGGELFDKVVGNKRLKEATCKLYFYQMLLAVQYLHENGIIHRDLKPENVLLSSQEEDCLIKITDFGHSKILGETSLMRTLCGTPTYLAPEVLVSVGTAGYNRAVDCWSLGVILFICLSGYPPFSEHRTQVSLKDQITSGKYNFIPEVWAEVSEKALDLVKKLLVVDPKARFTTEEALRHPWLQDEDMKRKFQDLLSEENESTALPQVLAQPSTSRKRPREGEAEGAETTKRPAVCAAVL

By inhibition is commonly meant the percentage by which the read-out fell short of the control. `NC(=O)c1sc(-c2ccsc2)cc1N`: the inhibition result in the assay filed under Mus musculus [1] is “Active”.

Broadly, the IC50 is the midpoint of a concentration-inhibition curve. As for `O=C(N/N=C/c1ccc([N+](=O)[O-])cc1)c1ccc2ccccc2c1`, the inhibition is 0% in assay [2], 0% in assay [3], 1.2% in assay [5] and “Dose-dependent effect” in the assay with Mus musculus [6]. Moreover, the inhibition result in the assay filed under Mus musculus [1] is “Active”. Further, in assay [4], the IC50 turned out to be 20 µM.

With `O=C(O)c1ccc(/C=N/NC(=O)c2ccc3ccccc3c2)cc1`, the inhibition in assay [2], in assay [3] and in assay [5] was 0% each time.

`COC(=O)c1ccc(/C=N/NC(=O)c2ccc3ccccc3c2)cc1`: the inhibition in assay [2], in assay [3] and in assay [5] was 0% in each case.
